Reference: US20050176705A1, “Compounds useful in the treatment of cns disorders” (priority 2000, published 2005)
Counter-ions that a name gives are not always drawn.

target: T1, human cloned 5-HT6 receptors (Homo sapiens, UniProt P50406); assay: 5-HT6 receptor affinity (procedures outlined in WO 98/27081); assay type: binding; details: not given
T1 construct: expressed in transfected cells
T1 sequence (P50406 whole entry): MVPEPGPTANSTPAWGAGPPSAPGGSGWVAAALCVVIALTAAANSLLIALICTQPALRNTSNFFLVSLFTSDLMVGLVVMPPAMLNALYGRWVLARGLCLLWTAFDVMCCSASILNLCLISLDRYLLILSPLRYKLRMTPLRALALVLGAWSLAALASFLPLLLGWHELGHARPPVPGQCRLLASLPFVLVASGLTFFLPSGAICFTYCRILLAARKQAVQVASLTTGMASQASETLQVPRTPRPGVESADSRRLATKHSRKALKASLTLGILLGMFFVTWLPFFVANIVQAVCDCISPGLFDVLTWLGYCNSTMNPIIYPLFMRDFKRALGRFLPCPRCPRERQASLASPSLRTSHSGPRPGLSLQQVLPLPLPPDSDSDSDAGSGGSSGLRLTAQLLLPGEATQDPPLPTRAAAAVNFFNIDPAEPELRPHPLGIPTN

| SMILES | Ki [nM] |
| --- | --- |
| O=S(=O)(c1cccc(Br)c1)n1ccc2c(N3CCNCC3)cccc21 [Example E107] | 0.2 to 1.58 |
| O=[N+]([O-])c1cccc(S(=O)(=O)n2ccc3c(N4CCNCC4)cccc32)c1 [Example E119] | 0.2 to 1.58 |
| COc1ccc2c(ccn2S(=O)(=O)c2ccc(C)cc2)c1N1CCNCC1 [Example E80, 5-Methoxy-4-(piperazin-1-yl)-1-(toluene-4-sulfonyl)-1H-indole] | 0.2 to 1.58 |
| O=S(=O)(c1cccc(Cl)c1)n1ccc2c(N3CCNCC3)ccc(Cl)c21 [Example E152, 7-Chloro-1-(3-chlorobenzenesulfonyl)-4-piperazin-1-yl-1H-indole hydrochloride] | 0.2 to 1.58 |
| O=S(=O)(c1cccc2nsnc12)n1ccc2c(N3CCNCC3)cccc21 [Example E40] | 0.2 to 1.58 |
| O=S(=O)(c1ccc(F)c(Cl)c1)n1ccc2c(N3CCNCC3)cccc21 [Example E123] | 0.2 to 1.58 |
| O=S(=O)(c1ccccc1)n1ccc2c(N3CCNCC3)ccc(Cl)c21 [Example E154, 1-Benzenesulfonyl-7-choro-4-piperazin-1-yl-1H-indole hydrochloride] | 0.2 to 1.58 |
| O=S(=O)(c1ccccc1Br)n1ccc2c(N3CCNCC3)cccc21 [Example E126] | 0.2 to 1.58 |
| O=S(=O)(c1c(Cl)cccc1Cl)n1ccc2c(N3CCNCC3)cccc21 [Example E70] | 0.2 to 1.58 |
| O=S(=O)(c1ccccc1Br)n1ccc2c(N3CCNCC3)c(Cl)ccc21 [Example E137, 1-(2-Bromobenzenesulfonyl)-5-chloro-4-piperazin-1-yl-1H-indole hydrochloride] | 0.2 to 1.58 |
| O=S(=O)(c1cccc(Cl)c1)n1ccc2c(N3CCNCC3)c(F)ccc21 [Example E163, 1-(3-Chlorobenzenesulfonyl)-5-fluoro-4-piperazin-1-yl-1H-indole hydrochloride] | 0.2 to 1.58 |
| O=S(=O)(c1cccc(Cl)c1)n1ccc2c(N3CCNCC3)cc(Cl)cc21 [Example E166, 6-Chloro-1-(3-chlorobenzenesulfonyl)-4-piperazin-1-yl-1H-indole hydrochloride] | 0.2 to 1.58 |
| O=S(=O)(c1ccccc1)n1ccc2c(N3CCNCC3)c(Cl)ccc21 [Example E135, 1-(Benzenesulfonyl)-5-chloro-4-piperazin-1-yl-1H-indole hydrochloride] | 0.2 to 1.58 |
| N#Cc1ccc(N2CCNCC2)c2ccn(S(=O)(=O)c3cccc(Cl)c3)c12 [Example E157, 7-Cyano-1-(3-chlorobenzenesulfonyl)-4-piperazin-1-yl-1H-indole hydrochloride] | 0.2 to 1.58 |
| Cc1cccc(S(=O)(=O)n2ccc3c(N4CCNCC4)c(Cl)ccc32)c1 [Example E140, 5-Chloro-1-(3-methylbenzenesulfonyl)-4-piperazin-4-yl-1H-indole hydrochloride] | 0.2 to 1.58 |
| Cc1cc2c(N3CCNCC3)cccc2n1S(=O)(=O)c1cccc(Cl)c1 [Example E165, 1-(3-Chlorobenzenesulfonyl)-2-methyl-4-piperazin-1-yl-1H-indole hydrochloride] | 0.2 to 1.58 |
| O=S(=O)(c1ccccn1)n1ccc2c(N3CCNCC3)c(Cl)ccc21 [Example E149, 5-Chloro-1-(pyridine-2-sulfonyl)-4-piperazin-4-yl-1H-indole hydrochloride] | 0.2 to 1.58 |

| SMILES | Ki [nM] |
| --- | --- |
| O=S(=O)(c1cccc(F)c1)n1ccc2c(N3CCNCC3)cccc21 [Example E22] | 0.2 to 1.58 |
| O=S(=O)(c1cccc(Cl)c1)n1ccc2c(N3CCNCC3)c(Cl)cc(Cl)c21 [Example E159, 1-(3-Chlorobenzenesulfonyl)-5,7-dichloro piperazin-1-yl-1H-indole hydrochloride] | 0.2 to 1.58 |
| O=S(=O)(c1cccc(Cl)c1)n1ccc2c(N3CCNCC3)c(Cl)ccc21 [Example E132, 5-Chloro-1-(3-chlorobenzenesulfonyl)-4-piperazin-1-yl-1H-indole hydrochloride] | 0.2 to 1.58 |
| O=S(=O)(c1cccs1)n1ccc2c(N3CCNCC3)cccc21 [Example E121] | 0.2 to 1.58 |
| O=S(=O)(c1cccc(Cl)c1)n1cc(Cl)c2c(N3CCNCC3)cccc21 [Example E151, 3-Chloro-1-(3-chlorobenzenesulfonyl)4-piperazin-1-yl-1H-indole hydrochloride] | 0.2 to 1.58 |
| O=S(=O)(c1cccc(Cl)c1)n1ccc2c(N3CCNCC3)ccc(Br)c21 [Example E156, 7-Bromo-1-(3-chlorobenzenesulfonyl)-4-piperazin-1-yl-1H-indole hydrochloride] | 0.2 to 1.58 |
| O=S(=O)(c1cc(Cl)cc(Cl)c1)n1ccc2c(N3CCNCC3)ccc(Cl)c21 [Example E153, 7-Chloro-1-(3,5-dichlorobenzenesulfonyl)-4-piperazin-1-yl-1H-indole hydrochloride] | 0.2 to 1.58 |
| O=S(=O)(c1cccc(Cl)c1)n1ccc2c(N3CCNCC3)cccc21 [Example E111] | 0.2 to 1.58 |
| N#Cc1cc(Br)ccc1S(=O)(=O)n1ccc2c(N3CCNCC3)cccc21 [Example E171, 1-(4-Bromo-2-cyanobenzenesulfonyl)-4-piperazin-1-yl-1H-indole hydrochloride] | 0.2 to 1.58 |
| O=S(=O)(c1cccc(Cl)c1)n1cc(Cl)c2c(N3CCNCC3)c(Cl)ccc21 [Example E158, 1-(3-Chlorobenzenesulfonyl)-3,5-dichloro-4-piperazin-1-yl-1H-indole hydrochloride] | 0.2 to 1.58 |
| CN1CCN(c2cccc3c2ccn3S(=O)(=O)c2cccs2)CC1 [Example E98] | 0.2 to 1.58 |
| COc1ccc2c(ccn2S(=O)(=O)c2cccc(Cl)c2)c1N1CCNCC1 [Example E172, 1-(3-Chlorobenzenesulfonyl)-5-methoxy-4-piperazin-1-yl-1H-indole hydrochloride] | 0.2 to 1.58 |
| O=S(=O)(c1cc(F)cc(F)c1Cl)n1ccc2c(N3CCNCC3)cccc21 [Example E131, 1-(2-Chloro-3,5-difluorobenzenesulfonyl)-4-piperazin-1-yl-1H-indole] | 0.2 to 1.58 |
| Cc1ccc(S(=O)(=O)n2ccc3c(N4CCNCC4)cccc32)cc1Cl [Example E112] | 0.2 to 1.58 |
| Cc1cn(S(=O)(=O)c2cccc(Cl)c2)c2cccc(N3CCNCC3)c12 [Example E167, 1-(3-Chlorobenzenesulfonyl)-3-methyl-4-piperazin-1-yl-1H-indole hydrochloride] | 0.2 to 1.58 |
| COc1ccc(N2CCNCC2)c2ccn(S(=O)(=O)c3cccc(Cl)c3)c12 [Example E173, 1-(3-Chlorobenzenesulfonyl)-7-methoxy-4-piperazin-1-yl-1H-indole hydrochloride] | 0.2 to 1.58 |
| O=S(=O)(c1ccc(Br)cc1)n1ccc2c(N3CCNCC3)cccc21 [Example E113] | 0.2 to 1.58 |

same assay, conditions: human cloned 5-HT6 receptors; procedures of WO 98/27081; read-out: pKi at human cloned 5-HT6 receptors (converted)

| Ki [nM] | SMILES |
| --- | --- |
| 0.2 to 1.58 | CN1CCN(c2cccc3c2ccn3S(=O)(=O)c2ccc3ccccc3c2)CC1 [Example E90] |
| 0.2 to 1.58 | CN1CCN(c2cccc3c2ccn3S(=O)(=O)c2ccccc2)CC1 [Example E94] |
| 0.2 to 1.58 | N#Cc1cc(Br)ccc1S(=O)(=O)n1ccc2c(N3CCNCC3)c(Cl)ccc21 [Example E170, 1-(4-Bromo-2-cyanobenzenesulfonyl)-5-chloro-4-piperazin-1-yl-1H-indole hydrochloride] |
| 0.2 to 1.58 | CN1CCN(c2cccc3c2ccn3S(=O)(=O)c2ccccc2Br)CC1 [Example E103] |
| 0.2 to 1.58 | CN1CCN(c2cccc3c2ccn3S(=O)(=O)c2cccc(C(F)(F)F)c2)CC1 [Example E93] |
| 0.2 to 1.58 | CN1CCN(c2cccc3c2ccn3S(=O)(=O)c2ccc(F)c(Cl)c2)CC1 [Example E100] |
| 0.2 to 1.58 | CN1CCN(c2cccc3c2ccn3S(=O)(=O)c2cc(Cl)cc(Cl)c2)CC1 [Example E99] |
| 0.2 to 1.58 | COc1c(Cl)cc(Cl)cc1S(=O)(=O)n1ccc2c(N3CCNCC3)c(Cl)ccc21 [Example E78, 5-Chloro-1-(3,5-dichloro-2-methoxybenzenesulfonyl)-4-piperazin-1-yl-1H-indole trifluoroacetic acid salt] |
| 0.2 to 1.58 | O=S(=O)(c1ccc(Cl)cc1OC(F)(F)F)n1ccc2c(N3CCNCC3)cccc21 [Example E168, 1-(4-Chloro-2-trifluoromethoxybenzenesulfonyl)-4-piperazin-1-yl-1H-indole hydrochloride] |
| 0.2 to 1.58 | O=S(=O)(c1ccc2ccccc2c1)n1ccc2c(N3CCNCC3)c(Cl)ccc21 [Example E77, 5-Chloro-1-(naphthalene-2-sulfonyl)-4-piperazin-1-yl-1H-indole trifluoroacetic acid salt] |
| 0.2 to 1.58 | CN1CCN(c2cccc3c2ccn3S(=O)(=O)c2ccccc2C(F)(F)F)CC1 [Example E91] |
| 0.2 to 1.58 | O=S(=O)(c1cccc(Cl)c1)n1ccc2c(N3CCCNCC3)ccc(Cl)c21 [Example E175, 7-Chloro-1-(3-chlorobenzenesulfonyl)-4-[1,4]diazepan-1-yl-1H-indole hydrochloride] |
| 0.2 to 1.58 | CN1CCN(c2cccc3c2ccn3S(=O)(=O)c2cccc(Cl)c2)CC1 [Example E87] |
| 0.2 to 1.58 | O=S(=O)(c1ccccc1C(F)(F)F)n1ccc2c(N3CCNCC3)cccc21 [Example E115] |
| 0.2 to 1.58 | CN1CCN(c2cccc3c2ccn3S(=O)(=O)c2cccc(Br)c2)CC1 [Example E82] |
| 0.2 to 1.58 | O=S(=O)(c1cccc(C(F)(F)F)c1)n1ccc2c(N3CCNCC3)c(Cl)ccc21 [Example E139, 5-Chloro-1-(3-trifluoromethyl-benzenesulfonyl)-4-piperazin-1-yl-1H-indole hydrochloride] |
| 0.2 to 1.58 | CN1CCN(c2cccc3c2ccn3S(=O)(=O)c2cc(Br)c(Cl)s2)CC1 [Example E85] |
